Data from patent EP0012435A2, “Isoxazole derivatives, process for their preparation, medicines containing them and intermediates required in this process” (HOECHST AKTIENGESELLSCHAFT, priority 1978, dated 1980).
Marks after values point to notes of the source that are not given here.

Tests used:
[1] = test system: männliche Ratten eines Wistar-Lewis-Stammes; assay: Adjuvant arthritis, preventive test (method of Pearson); assay type: in vivo; settings: for ED50: Rattus norvegicus, 408 h, read-out: Adjuvans-Arthritis ED50; for Therapeut. Index UD50 / ED50: ratio of ulcerogenic UD50 to adjuvant arthritis ED50
Excerpt: 1. Adjuvans-Arthritis, praeventive Testung
Die Untersuchungen wurden nach der Methode von Pearson durchgeführt (Arthrit. Rheum. 2, 440 (1959)). Als Versuchstiere dienten männliche Ratten eines Wistar-Lewis-Stammes im Körpergewicht zwischen 130 und 200 g. Die zu prüfenden Verbindungen wurden täglich vom 1. bis 17. Versuchstag oral appliziert. Tiere einer Kontrollgruppe erhielten nur das Lösungsmittel. Als Wirkungskriterium diente die Herabsetzung der Pfoten-Volumenzunahme gegenüber der unbehandelten Kontrollgruppe. Die ED50-Werte wurden graphisch aus der Dosiswirkungskurve bestimmt.

Acute toxicity = settings: mouse, in vivo, ip; NMRI mice, intraperitoneal, mortality within 7 days; read-out: Toxizität LD50-Bereich (Maus i.p.)
Excerpt: Die Bestimmung der LD50-Bereiche erfolgte standardgemäß über die innerhalb von 7 Tagen bei NMRI-Mäusen nach intraperitonealer Gabe auftretende Mortalität.

[2] = Ulcerogenic effect (gastric mucosal lesions after oral dose); assay type: in vivo, Ratten; settings: rat, gastric mucosa, fasted rats, killed 24 h after dose, UD50 by Litchfield and Wilcoxon, read-out: Ulzerogenität UD50
Excerpt: (§1) Die Untersuchungen erfolgten an männlichen Sprague-Dawley Ratten im Körpergewicht zwischen 200 und 300 g. 48 Stunden vor Applikation der Testsubstanzen bis zum Töten der Tiere wurde das Futter entzogen, bei freiem Zugang zum Trinkwasser. Die Ratten wurden 24 Stunden nach oraler Gabe getötet, der Magen entommen, unter fließendem Wasser gereinigt und auf Schleimhautlösionen inspiziert. Als Ulzera galten alle makroskopisch sichtbaren Läsionen. Bestimmt wurde der Anteil der Tiere mit Ulzera pro dosi und die UD50 nach Litchfield und Wilcoxon (J. Pharmacol. exp. Ther. 96, 99 (1949)).

NMRI-Mäusen = settings: literature value (Barnes and Eltherington, Drug Dosage in Laboratory Animals, 1973, p. 199); cited from earlier work
[3] = test system: männlichen Sprague-Dawley Ratten; assay: Ulcerogenic effect (gastric mucosal lesions after oral dose); assay type: in vivo; settings: fasted rats, killed 24 h after dose, UD50 by Litchfield and Wilcoxon
Excerpt: as §1

[4] = oral, daily from day 1 to 17, reduction of paw volume increase vs. control, ED50 read graphically from dose-response curve

Molecule | ED50 [1, 4] [mg/kg] | Therapeut. Index UD50 / ED50 [1] | LD50 at 168 h (Acute toxicity) [mg/kg] | TD50 at 24 h [2] [mg/kg] | Toxizität LD50 (Maus i.p.) (NMRI-Mäusen) | Adjuvans-Arthritis ED50 ([1]; oral, daily from day 1 to 17, reduction of paw volume increase vs. control, ED50 read graphically from dose-response curve, 24480 min) [mg/kg] | Ulzerogenität UD50 [3] [mg/kg]
Cc1oncc1C(=O)Nc1ccc(Oc2ccc(C(F)(F)F)cc2)cc1 [Beispiel 10, N-[4-(4-Trifluormethylphenoxy)-phenyl]-5-methylisoxazol-4-carboxamid] | 8 | 29 | 150 to 300 | 230 |  |  | 
Phenylbutazon [Phenyl=butazon, reference compound] |  |  |  |  | LD50 = 336^* mg/kg | 37 | 100
CCc1oncc1C(=O)Nc1ccc(C(F)(F)F)cc1 [Beispiel 1, N-(4-Trifluormethylphenyl)-5-äthylisoxazol-4-carboxamid] | 6 | 12 | 150 to 300 | 70 |  |  | 
O=C(Nc1ccc(C(F)(F)F)cc1)c1cnoc1C(F)(F)F [Beispiel 6, N-(4-Trifluormethylphenyl)-5-trifluormethylisoxazol-4-carboxamid] | 3 | 27 |  | 80 |  |  | 
Cc1oncc1C(=O)Nc1ccc(F)cc1 [P 25 24 959 Nr. 10, N-(4-Fluorphenyl)-5-methylisoxazol-4-carboxamid, reference compound] | 15 | 17 | 200 to 400 | 250 |  |  | 
